The numbers were not newly measured in patent publication US20090088367A1, “Treatment of Insulin Resistance/Metabolic Syndrome to Alleviate the Risks of Dementia” (Burnham Institute For Medical Research, priority 2004, published 2009), which cites them from elsewhere.

One series has as its system tau hyperphosphorylation. Conditions: in culture; okadaic acid-induced changes; Iqbal et al., J Neurochem 2003.
In series [1] the test system is neurodegeneration induced by beta-amyloid(1-40). Conditions: Miguel-Hidalgo et al., Brain Res 2002.
Series [2] relates to APP/PS1 double mutant mice. The conditions noted are these: transgenic mouse with mutant amyloid precursor protein and presenilin I; Tanila et al., J Neurochem 2003.

Take `CC12CC3CC(C)(C1)CC(N)(C3)C2` [memantine, 1-amino-3,5-dimethyladamantine]: in the series on tau hyperphosphorylation, the tau hyperphosphorylation entry is reported as “reduce tau hyperphosphorylation”. In series [1], the “protection from intrahippocampal injection of Aβ” value is on record as “offer protection”. Further, the “performance on behavioral tests (T-maze and Morris water maze)” value in series [2] is given as “improved performance”.
